This note sets out measurements from US20060046966A1, “Antipicornaviral compounds and compositions, their pharmaceutical uses, and materials for their synthesis” (Agouron Pharmaceuticals, Inc., priority 1998, published 2006).

Data set [1] addresses T1, rhinovirus 3C protease from HRV serotype-14 (Human rhinovirus 14, UniProt P03303).
T1 construct: Recombinant rhinovirus 3C proteases; made in house
The data set can be described thus: Inhibition of rhinovirus 3C protease (FRET assay), serotype 14. The class given is biochemical. Conditions: HRV serotype-14 3C protease; progress curves in enzyme start experiments; read-out: Protease Inhibition kobs/[I]. In a few lines:
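Recombinant 3C protease (50-100 nM) with ~1 μM DABCYL-GRAVFQGPVG-EDANS FRET substrate in 50 mM Tris pH 7.6, 1 mM EDTA, 2% DMSO. Cleavage read as increase in EDANS fluorescence. kobs/[I] derived from progress curves of enzyme-initiated reactions.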

Data set [2] addresses T2, rhinovirus 3C protease, serotype 16 (Human rhinovirus 16, UniProt Q82122).
T2 construct: Recombinant rhinovirus 3C proteases; made in house
The data set can be described thus: Inhibition of rhinovirus 3C protease (FRET assay), serotype 16. Conditions: Rhinovirus Serotype (16) 3C protease; read-out: kobs/I. The data set is classed as biochemical. On the procedure:
Stock solutions (50 mM, in DMSO) of various compounds were prepared; dilutions were in the same solvent. Recombinant rhinovirus 3C proteases (see Birch et al., “Purification of recombinant human rhinovirus 14 3C protease expressed in Escherichia coli,” Protein Expr. Pur. 1995, 6(5), 609-618) from serotypes 14, 16, and 2 were prepared by the following standard chromatographic procedures: (1) ion exchange using Q Sepharose Fast Flow from Pharmacia; (2) affinity chromatography using Affi-Gel Blue from Biorad; and (3) sizing using Sephadex G-100 from Pharmacia. Each assay sample contained 2% DMSO, 50 mM tris pH 7.6, 1 mM EDTA, a test compound at the indicated concentration, approximately 1 μM substrate, and 50-100 nM protease. The kobs/I values were obtained from reactions initiated by addition of enzyme rather than substrate. RVP activity was measured in the fluorescence resonance energy transfer assay. The substrate was (N-terminal) DABCYL-(Gly-Arg-Ala-Val-Phe-Gln-Gly-Pro-Val-Gly)-EDANS. In the uncleaved peptide, the EDANS fluorescence was quenched by the proximal DABCYL moiety. When the peptide was cleaved, the quenching was relieved, and activity was measured as an increase in fluorescence signal. […] The data in the column designated kobs/[I] were measured from progress curves in enzyme start experiments.

For data set [3], the target named is T3, rhinovirus 3C protease, serotype 89 (Human rhinovirus A serotype 89, UniProt P07210).
T3 construct: Recombinant rhinovirus 3C proteases
T3 sequence (P07210 1522-1704): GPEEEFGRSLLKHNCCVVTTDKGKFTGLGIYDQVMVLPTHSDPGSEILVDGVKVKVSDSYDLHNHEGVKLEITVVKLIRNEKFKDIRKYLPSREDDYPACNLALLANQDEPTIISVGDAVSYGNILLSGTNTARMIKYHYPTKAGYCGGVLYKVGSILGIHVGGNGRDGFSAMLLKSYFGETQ
The data set can be described thus: Inhibition of rhinovirus 3C protease (FRET assay), serotype 89. The class given is biochemical. Conditions: Rhinovirus Serotype (89) 3C protease; read-out: kobs/I.

In data set [4] the target is T4, rhinovirus 3C protease, serotype 2 (Human rhinovirus 2, UniProt P04936).
T4 construct: Recombinant rhinovirus 3C proteases; made in house
T4 sequence (P04936 1508-1690): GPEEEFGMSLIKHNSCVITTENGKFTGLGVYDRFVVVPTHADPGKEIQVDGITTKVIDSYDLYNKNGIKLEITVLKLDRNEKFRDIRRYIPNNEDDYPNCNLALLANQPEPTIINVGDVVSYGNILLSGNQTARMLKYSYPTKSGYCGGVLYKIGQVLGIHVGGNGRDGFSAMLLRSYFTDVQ
Put plainly: Inhibition of rhinovirus 3C protease (FRET assay), serotype 2. The note with it: Rhinovirus Serotype (2) 3C protease; read-out: kobs/I. The class given is biochemical. As to the method:
Stock solutions (50 mM, in DMSO) of various compounds were prepared; dilutions were in the same solvent. Recombinant rhinovirus 3C proteases (see Birch et al., “Purification of recombinant human rhinovirus 14 3C protease expressed in Escherichia coli,” Protein Expr. Pur. 1995, 6(5), 609-618) from serotypes 14, 16, and 2 were prepared by the following standard chromatographic procedures: (1) ion exchange using Q Sepharose Fast Flow from Pharmacia; (2) affinity chromatography using Affi-Gel Blue from Biorad; and (3) sizing using Sephadex G-100 from Pharmacia. Each assay sample contained 2% DMSO, 50 mM tris pH 7.6, 1 mM EDTA, a test compound at the indicated concentration, approximately 1 μM substrate, and 50-100 nM protease. The kobs/I values were obtained from reactions initiated by addition of enzyme rather than substrate. RVP activity was measured in the fluorescence resonance energy transfer assay. The substrate was (N-terminal) DABCYL-(Gly-Arg-Ala-Val-Phe-Gln-Gly-Pro-Val-Gly)-EDANS. In the uncleaved peptide, the EDANS fluorescence was quenched by the proximal DABCYL moiety. When the peptide was cleaved, the quenching was relieved, and activity was measured as an increase in fluorescence signal. In Table 1, all data are for rhinovirus 3C protease from HRV serotype-14 (produced from the infectious cDNA clone constructed by Dr. Robert Rueckert, Institute for Molecular Virology, University of Wisconsin, Madison, Wis.). […] The data in the column designated kobs/[I] were measured from progress curves in enzyme start experiments.

The next data set concerns HRV-14. Put plainly: Antirhinoviral H1-HeLa cell culture assay, HRV-14. The class given is cell-based, human rhinovirus. Conditions: Rhinovirus B, HRV14, H1-HeLa, HRV serotype-14, H1-HeLa cells. In a few lines: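 Antiviral EC50 comes from formazan production by infected, compound-treated H1-HeLa cells reaching 50% of the mock-infected, untreated level. Cells grown in MEM/10% FBS were infected at m.o.i. 0.13 and incubated with compound for two days before XTT/PMS addition.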

The next data set concerns HRV (89). The data set can be described thus: Antirhinoviral H1-HeLa cell culture assay, HRV serotype 89. The class given is cell-based, human rhinovirus. The note with it: Human rhinovirus sp., H1-HeLa cells, XTT. As to the method: (§1) In this cell protection assay, the ability of compounds to protect cells against HRV infection was measured by the XTT dye reduction method, which is described in Weislow et al., J. Natl. Cancer Inst. 1989, vol. 81, 577-586.
(§2) H1-HeLa cells were infected with HRV-14 at a multiplicity of infection (m.o.i.) of 0.13 (virus particles/cell) or mock-infected with medium only. Infected or mock-infected cells were resuspended at 8×10^5 cells per mL, and incubated with appropriate concentrations of the compounds to be tested. Two days later, XTT/PMS was added to test plates and the amount of formazan produced was quantified spectrophotometrically at 450/650 nm. The EC50 value was calculated as the concentration of compound that increased the percentage of formazan production in compound-treated, virus-infected cells to 50% of that produced by compound-free, mock-infected cells. The 50% cytotoxic dose (CC50) was calculated as the concentration of compound that decreased the percentage of formazan produced in compound-treated, mock-infected cells to 50% of that produced by compound-free, mock-infected cells. The therapeutic index (TI) was calculated by dividing the CC50 value by the EC50 value.
(§3) All strains of human rhinovirus (HRV) for use in this assay were purchased from American Type Culture Collection (ATCC), except for HRV serotype-14 (produced from the infectious cDNA clone constructed by Dr. Robert Rueckert, Institute for Molecular Virology, University of Wisconsin, Madison, Wis.). HRV stocks were propagated and viral assays were performed in H1-HeLa cells (ATCC). Cells were grown in minimal essential medium with 10% fetal bovine serum, available from Life Technologies (Gaithersburg, Md.).
(§4) The compounds were tested against control compounds WIN 51711, WIN 52084, and WIN 54954 (obtained from Sterling-Winthrop Pharmaceuticals), Pirodavir (obtained from Janssen Pharmaceuticals), and Pleconaril (prepared according to the method described in Diana et al., J. Med. Chem 1995, vol. 38, 1355). Antiviral data obtained for the test compounds are shown in Tables 1 and 3, where all data are for HRV serotype-14 unless otherwise noted in parentheses.

A further data set has as its system HRV (16). The data set can be described thus: Antirhinoviral H1-HeLa cell culture assay, HRV serotype 16. The class given is cell-based. The note with it: Human rhinovirus sp., H1-HeLa cells, XTT. As to the method: as §1, §2, §3
The compounds were tested against control compounds WIN 51711, WIN 52084, and WIN 54954 (obtained from Sterling-Winthrop Pharmaceuticals), Pirodavir (obtained from Janssen Pharmaceuticals), and Pleconaril (prepared according to the method described in Diana et al., J. Med. Chem 1995, vol. 38, 1355). […]
In general terms: Formazan colour is commonly taken as a measure of viable cells.

In another data set the test system is HRV (10). The data set can be described thus: Antirhinoviral H1-HeLa cell culture assay, HRV serotype 10. Conditions: Human rhinovirus sp., H1-HeLa, H1-HeLa cells, XTT. The data set is classed as cell-based, human rhinovirus. As to the method: as §1, §2, §3, §4
The next data set relates to H1-HeLa cells. Put plainly: Cytotoxicity in uninfected H1-HeLa cells (anticoxsackieviral assay, XTT). The data set is classed as cell-based. The note with it: 50% cytotoxic dose, Table 4. On the procedure: The ability of compounds to protect cells against either CAV-21 or CVB-3 infection was measured by the XTT dye reduction method. This method is described in Weislow et al., J. Natl. Cancer Inst. 1989, vol. 81, 577-586. H1-HeLa cells were infected with CAV-21 or CVB-3 at a multiplicity of infection (m.o.i.) of 0.025 or 0.075, respectively, or mock-infected with medium only. H1-HeLa cells were plated at 4×10^4 cells per well in a 96-well plate and incubated with appropriate concentrations of the test compound. One day (CVB-3) or two days (CAV-21) later, XTT/PMS was added to test plates and the amount of formazan produced was quantified spectrophotometrically at 450/650 nm. The EC50 was calculated as the concentration of compound that increased the formazan production in compound-treated, virus-infected cells to 50% of that produced by compound-free, uninfected cells. The 50% cytotoxic dose (CC50) was calculated as the concentration of compound that decreased formazan production in compound-treated, uninfected cells to 50% of that produced in compound-free, uninfected cells. The therapeutic index TI) was calculated by dividing the CC50 by the EC50.

Like-named read-outs stand apart in the source and are kept apart here.

T2 sequence (Q82122 1511-1693): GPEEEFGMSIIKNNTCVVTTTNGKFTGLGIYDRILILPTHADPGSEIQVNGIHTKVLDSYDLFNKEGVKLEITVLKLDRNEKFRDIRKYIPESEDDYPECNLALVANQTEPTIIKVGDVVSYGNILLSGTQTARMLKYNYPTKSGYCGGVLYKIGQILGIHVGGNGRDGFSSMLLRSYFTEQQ
T1 sequence (P03303 1538-1719): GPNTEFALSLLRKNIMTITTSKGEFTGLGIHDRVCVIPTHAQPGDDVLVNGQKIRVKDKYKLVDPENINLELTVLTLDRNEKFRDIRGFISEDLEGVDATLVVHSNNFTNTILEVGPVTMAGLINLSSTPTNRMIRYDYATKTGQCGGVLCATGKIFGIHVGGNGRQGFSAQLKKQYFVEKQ

As usually defined, the EC50 is the concentration that produces a half-maximal response. Regarding `CCOC(=O)/C=C/[C@H](CCC(N)=O)NC(=O)[C@H](Cc1ccccc1)NC(=O)[C@H](CC(C)C)NC(=O)OCc1ccccc1` [Comparison Compound #2, Ethyl-3-(Cbz-L-Leu-L-Phe-L-Gln)-E-Propenoate, reference compound], the kinact/KI turned out to be 25000 M⁻¹ s⁻¹ in data set [1], 6500 M⁻¹ s⁻¹ in data set [2], 3400 M⁻¹ s⁻¹ in data set [3] and 2000 M⁻¹ s⁻¹ in data set [4]. Also, the EC50 was 610 nM in the data set on HRV-14 (Table 1, XTT dye reduction, read-out: Cell Protection EC50); 610 nM with HRV-14 (Table 3, XTT, read-out: EC50); 6300 nM with HRV (89); 2300 nM with HRV (16); 600 nM in the data set on HRV (10).

The term CC50 denotes the concentration that lowers cell viability or growth by half. Low values mean greater toxicity to the cells, high ones lower toxicity to the cells. `Cc1cc(CCCCCOc2c(Cl)cc(C3=NCCO3)cc2Cl)on1` [WIN 54954] showed a CC50 in the data set with H1-HeLa cells above 100000 nM.
